Reference: patent US10774092B2 (SALK INSTITUTE FOR BIOLOGICAL STUDIES, priority 2014, dated 2020)
Structures can show the parent of a compound that is named as a salt.

The molecules below were run against ULK1 (assay: ULK1 inhibition assay (Table 1)). Conditions: * = tested as a mixture of regioisomers.
Format: biochemical

Row | Compound | IC50 [nM]
1 | COc1cc(Nc2ncc(Br)c(Nc3ccccc3)n2)cc(OC)c1OC [Example 293, 5-bromo-N4-phenyl-N2-(3,4,5-trimethoxyphenyl)pyrimidine-2,4-diamine] | < 200
2 | O=C1CCc2cc(Nc3ncc(C(F)(F)F)c(Oc4ccccc4)n3)ccc2N1 [Example 300a, 6-((4-phenoxy-5-(trifluoromethyl)pyrimidin-2-yl)amino)-3,4-dihydroquinolin-2(1H)-one] | > 2000
3 | O=C1CCc2cc(Nc3nc(Oc4ccccc4)ncc3C(F)(F)F)ccc2N1 [Example 300b, 6-((2-phenoxy-5-(trifluoromethyl)pyrimidin-4-yl)amino)-3,4-dihydroquinolin-2(1H)-one] | > 2000
4 | FC(F)(F)c1cnc(Nc2ccc(Nc3ncc(C(F)(F)F)c(NC4CC4)n3)cc2)nc1NC1CC1 [Example 304b, N2,N2′-(1,4-phenylene)bis(N4-cyclopropyl-5-(trifluoromethyl)pyrimidine-2,4-diamine)] | > 2000
5 | FC(F)(F)c1cnc(Nc2ccc3c(c2)CCNC3)nc1NC1CC1 [Example 309, N4-cyclopropyl-N2-(1,2,3,4-tetrahydroisoquinolin-6-yl)-5-(trifluoromethyl)pyrimidine-2,4-diamine.HCl] | < 200
6 | NCCCNc1nc(Nc2ccc3c(c2)CCC(=O)N3)ncc1C(F)(F)F [Example 313, 6-((4-((3-aminopropyl)amino)-5-(trifluoromethyl)pyrimidin-2-yl)amino)-3,4-dihydroquinolin-2(1H)-one.HCl] | < 200
7 | O=C1NC(=O)c2cc(Nc3ncc(C(F)(F)F)c(NC4CC4)n3)ccc21 [Example 314, 5-((4-(cyclopropylamino)-5-(trifluoromethyl)pyrimidin-2-yl)amino)isoindoline-1,3-dione] | < 200
8 | CNC(=O)CCOc1nc(Nc2cc(OC)c(OC)c(OC)c2)ncc1Br [Example 316, 3-((5-bromo-2-((3,4,5-trimethoxyphenyl)amino)pyrimidin-4-yl)oxy)-N-methylpropanamide] | < 200
9 | COc1cc(Nc2ncc(Br)c(Nc3ccccc3O)n2)cc(OC)c1OC [Example 317, 2-((5-bromo-2-((3,4,5-trimethoxyphenyl)amino)pyrimidin-4-yl)amino)phenol] | < 200

These molecules were tested against ULK1 (Homo sapiens, UniProt O75385) (assay: ULK1 inhibition assay (Table 1)). Conditions: * = tested as a mixture of regioisomers.
ULK1 (Homo sapiens, UniProt O75385), sequence (O75385 whole entry, looked up): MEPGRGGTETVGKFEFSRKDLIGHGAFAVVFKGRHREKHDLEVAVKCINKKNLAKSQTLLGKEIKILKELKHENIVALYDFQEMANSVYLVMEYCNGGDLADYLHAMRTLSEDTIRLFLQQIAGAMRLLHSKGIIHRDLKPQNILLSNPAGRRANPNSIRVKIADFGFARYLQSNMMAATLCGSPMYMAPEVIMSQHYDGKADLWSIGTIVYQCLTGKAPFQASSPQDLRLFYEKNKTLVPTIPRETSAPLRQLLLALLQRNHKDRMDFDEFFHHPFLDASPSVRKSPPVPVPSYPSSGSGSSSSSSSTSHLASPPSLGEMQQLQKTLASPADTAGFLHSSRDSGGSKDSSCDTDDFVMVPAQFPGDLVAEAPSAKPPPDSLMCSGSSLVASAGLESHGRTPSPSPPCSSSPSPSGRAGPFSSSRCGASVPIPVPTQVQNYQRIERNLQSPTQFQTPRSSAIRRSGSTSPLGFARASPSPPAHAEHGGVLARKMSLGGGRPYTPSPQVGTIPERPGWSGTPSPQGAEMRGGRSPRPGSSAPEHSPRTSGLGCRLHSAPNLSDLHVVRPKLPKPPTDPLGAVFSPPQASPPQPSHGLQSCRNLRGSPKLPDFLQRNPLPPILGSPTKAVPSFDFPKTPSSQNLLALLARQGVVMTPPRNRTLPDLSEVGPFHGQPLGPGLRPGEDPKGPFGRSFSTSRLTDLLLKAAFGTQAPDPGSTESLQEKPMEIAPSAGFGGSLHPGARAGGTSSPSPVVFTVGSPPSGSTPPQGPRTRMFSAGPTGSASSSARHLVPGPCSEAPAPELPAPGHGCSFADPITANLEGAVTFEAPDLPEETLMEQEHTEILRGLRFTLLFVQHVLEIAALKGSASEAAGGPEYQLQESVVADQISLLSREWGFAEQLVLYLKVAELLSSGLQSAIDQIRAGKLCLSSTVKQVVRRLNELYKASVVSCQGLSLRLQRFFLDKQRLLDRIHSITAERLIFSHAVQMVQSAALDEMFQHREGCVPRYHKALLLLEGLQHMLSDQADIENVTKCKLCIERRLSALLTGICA
Format: biochemical

Row | Compound | IC50 [nM]
10 | CC1CN1c1nc(Nc2ccc3c(c2)CCC(=O)N3)ncc1C(F)(F)F (stereo not shown) [Example 183a, 6-((4-(2-methylaziridin-1-yl)-5-(trifluoromethyl)pyrimidin-2-yl)amino)-3,4-dihydroquinolin-2(1H)-one] | > 2000
11 | O=C1CCc2cc(Nc3ncc(C(F)(F)F)c(Nc4ccc5[nH]ncc5c4)n3)ccc2N1 [Example 185, 6-((4-((1H-indazol-5-yl)amino)-5-(trifluoromethyl)pyrimidin-2-yl)amino)-3,4-dihydroquinolin-2(1H)-one] | < 200
12 | COc1cc(Nc2ncc(Br)c(NC3CC3)n2)cc(OC)c1OC [Example 186, 5-bromo-N4-cyclopropyl-N2-(3,4,5-trimethoxyphenyl)pyrimidine-2,4-diamine] | < 200
13 | FC(F)(F)c1cnc(Nc2ccc3nn[nH]c3c2)nc1NC1CC1 [Example 188, N2-(1H-benzo[d][1,2,3]triazol-6-yl)-N4-cyclopropyl-5-(trifluoromethyl)pyrimidine-2,4-diamine] | < 200
14 | FC(F)(F)c1cnc(Nc2ccc3c(c2)OCCCO3)nc1NC1CC1 [Example 190, N4-cyclopropyl-N2-(3,4-dihydro-2H-benzo[b][1,4]dioxepin-7-yl)-5-(trifluoromethyl)pyrimidine-2,4-diamine] | < 200
15 | O=c1[nH]c2ncc(Nc3nc(Nc4ccc5c(c4)OCCO5)ncc3Br)cc2o1 [Example 192, 6-((5-bromo-2-((2,3-dihydrobenzo[b][1,4]dioxin-6-yl)amino)pyrimidin-4-yl)amino)oxazolo[4,5-b]pyridin-2(3H)-one] | < 200
16 | O=C1CCc2cc(Nc3ncc(C(F)(F)F)c(NC4COC4)n3)ccc2N1 [Example 193, 6-((4-(oxetan-3-ylamino)-5-(trifluoromethyl)pyrimidin-2-yl)amino)-3,4-dihydroquinolin-2(1H)-one] | > 2000
17 | FC(F)(F)c1cnc(Nc2cnc3[nH]ccc3c2)nc1NC1COC1 [Example 194, N4-(oxetan-3-yl)-N2-(1H-pyrrolo[2,3-b]pyridin-5-yl)-5-(trifluoromethyl)pyrimidine-2,4-diamine] | < 200
18 | O=C1CCc2cc(Nc3ncc(C(F)(F)F)c(NCCO)n3)ccc2N1 [Example 197, 6-((4-((2-hydroxyethyl)amino)-5-(trifluoromethyl)pyrimidin-2-yl)amino)-3,4-dihydroquinolin-2(1H)-one] | < 200
19 | CNC(=O)c1ccccc1Nc1nc(Nc2cnc3[nH]ccc3c2)ncc1C(F)(F)F [Example 201, 2-((2-((1H-pyrrolo[2,3-b]pyridin-5-yl)amino)-5-(trifluoromethyl)pyrimidin-4-yl)amino)-N-methylbenzamide] | < 200
20 | CN(c1nc(Nc2ccc3c(c2)CCC(=O)N3)ncc1C(F)(F)F)C1CC1 [Example 202, 6-((4-(cyclopropyl(methyl)amino)-5-(trifluoromethyl)pyrimidin-2-yl)amino)-3,4-dihydroquinolin-2(1H)-one] | < 200
21 | FC(F)(F)c1cnc(Nc2ccc3[nH]ccc3c2)nc1NC1CC1 [Example 206, N4-cyclopropyl-N2-(1H-indol-5-yl)-5-(trifluoromethyl) pyrimidine-2,4-diamine] | < 200
22 | FC(F)(F)c1cnc(Nc2ccc3ncoc3c2)nc1NC1CC1 [Example 208a, N2-(benzo[d]oxazol-6-yl)-N4-cyclopropyl-5-(trifluoromethyl)pyrimidine-2,4-diamine] | < 200
23 | Nc1nc(Nc2ccc3c(c2)CCC(=O)N3)ncc1C(F)(F)F [Example 209, 6-((4-amino-5-(trifluoromethyl)pyrimidin-2-yl)amino)-3,4-dihydroquinolin-2(1H)-one] | 200 to 2000
24 | O=C1CCc2cc(Nc3ncc(C(F)(F)F)c(N(CCO)CCO)n3)ccc2N1 [Example 212a, 6-((4-(bis(2-hydroxyethyl)amino)-5-(trifluoromethyl)pyrimidin-2-yl)amino)-3,4-dihydroquinolin-2(1H)-one] | > 2000
25 | FC(F)(F)c1cnc(Nc2ccc3c(c2)OCO3)nc1NC1CC1 [Example 213, N2-(benzo[d][1,3]dioxol-5-yl)-N4-cyclopropyl-5-(trifluoromethyl)pyrimidine-2,4-diamine] | < 200

Row | Compound | IC50 [nM]
26 | O=C1CCc2cc(Nc3ncc(C(F)(F)F)c(N4CC(F)(F)C4)n3)ccc2N1 [Example 215, 6-((4-(3,3-difluoroazetidin-1-yl)-5-(trifluoromethyl)pyrimidin-2-yl)amino)-3,4-dihydroquinolin-2(1H)-one] | < 200
27 | O=C1CCc2cc(Nc3ncc(C(F)(F)F)c(NCC4CC4)n3)ccc2N1 [Example 216, 6-((4-((cyclopropylmethyl)amino)-5-(trifluoromethyl)pyrimidin-2-yl)amino)-3,4-dihydroquinolin-2(1H)-one] | < 200
28 | Nc1nc(Nc2cnc3[nH]ccc3c2)ncc1C(F)(F)F [Example 217, N2-(1H-pyrrolo[2,3-b]pyridin-5-yl)-5-(trifluoromethyl) pyrimidine-2,4-diamine] | > 2000
29 | COC(=O)CNc1nc(Nc2ccc3c(c2)CCC(=O)N3)ncc1C(F)(F)F [Example 218, Methyl (2-((2-oxo-1,2,3,4-tetrahydroquinolin-6-yl)amino)-5-(trifluoromethyl)pyrimidin-4-yl)glycinate] | > 2000
30 | CCONc1nc(Nc2ccc3c(c2)CCC(=O)N3)ncc1C(F)(F)F [Example 219, 6-((4-(ethoxyamino)-5-(trifluoromethyl)pyrimidin-2-yl)amino)-3,4-dihydroquinolin-2(1H)-one] | > 2000
31 | CC1(Nc2nc(Nc3ccc4c(c3)CCC(=O)N4)ncc2C(F)(F)F)COC1 [Example 220a, 6-((4-((3-methyloxetan-3-yl)amino)-5-(trifluoromethyl)pyrimidin-2-yl)amino)-3,4-dihydroquinolin-2(1H)-one] | > 2000
32 | FC(F)(F)c1cnc(Nc2ccnnc2)nc1NC1CC1 [Example 221a, N4-cyclopropyl-N2-(pyridazin-4-yl)-5-(trifluoromethyl)pyrimidine-2,4-diamine] | < 200
33 | O=C1CCc2cc(Nc3ncnc(NC4CC4)n3)ccc2N1 [Example 225, 6-((4-(cyclopropylamino)-1,3,5-triazin-2-yl)amino)-3,4-dihydroquinolin-2(1H)-one] | > 2000
34 | COC(=O)[C@@H]1CCCN1c1nc(Nc2ccc3c(c2)CCC(=O)N3)ncc1C(F)(F)F [Example 227, Methyl (2-((2-oxo-1,2,3,4-tetrahydroquinolin-6-yl)amino)-5-(trifluoromethyl)pyrimidin-4-yl)-L-prolinate] | 200 to 2000
35 | FC(F)(F)c1cnc(N2CCCC2c2cccnc2)nc1NC1CC1 (stereo not shown) [Example 228, N-cyclopropyl-2-(2-(pyridin-3-yl)pyrrolidin-1-yl)-5-(trifluoromethyl)pyrimidin-4-amine] | > 2000
36 | CNC(=O)c1ccccc1Oc1nc(Nc2cc(OC)c(OC)c(OC)c2)ncc1Cl [Example 234a, 2-((5-chloro-2-((3,4,5-trimethoxyphenyl)amino)pyrimidin-4-yl)oxy)-N-methylbenzamide] | > 2000
37 | O=c1[nH]c2ccc(Nc3ncc(Br)c(NC4CC4)n3)cc2[nH]1 [Example 236, 5-((5-bromo-4-(cyclopropylamino)pyrimidin-2-yl)amino)-1,3-dihydro-2H-benzo[d]imidazol-2-one] | < 200
38 | CNS(=O)(=O)c1ccccc1Nc1nc(Nc2cc(OC)c(OC)c(OC)c2)ncc1Br [Example 237, 2-((5-bromo-2-((3,4,5-trimethoxyphenyl)amino)pyrimidin-4-yl)amino)-N-methylbenzenesulfonamide] | 200 to 2000
39 | CNC(=O)c1ccccc1Oc1ccnc(Nc2cc(OC)c(OC)c(OC)c2)n1 [Example 239, N-methyl-2-((2-((3,4,5-trimethoxyphenyl)amino)pyrimidin-4-yl)oxy)benzamide] | > 2000
40 | Oc1ccc(CCNc2ncc(C(F)(F)F)c(NC3CC3)n2)cc1 [Example 246, 4-(2-((4-(cyclopropylamino)-5-(trifluoromethyl)pyrimidin-2-yl)amino)ethyl)phenol] | 200 to 2000
